What was measured:
[1] = biological target: T1, A2B receptors (Homo sapiens, UniProt P29275); assay: radioligand binding to human A2B receptors, HEK-293 membranes, [3H]MRS1754
T1 construct: purchased PerkinElmer ES-013-M
T1 sequence (P29275 1-332): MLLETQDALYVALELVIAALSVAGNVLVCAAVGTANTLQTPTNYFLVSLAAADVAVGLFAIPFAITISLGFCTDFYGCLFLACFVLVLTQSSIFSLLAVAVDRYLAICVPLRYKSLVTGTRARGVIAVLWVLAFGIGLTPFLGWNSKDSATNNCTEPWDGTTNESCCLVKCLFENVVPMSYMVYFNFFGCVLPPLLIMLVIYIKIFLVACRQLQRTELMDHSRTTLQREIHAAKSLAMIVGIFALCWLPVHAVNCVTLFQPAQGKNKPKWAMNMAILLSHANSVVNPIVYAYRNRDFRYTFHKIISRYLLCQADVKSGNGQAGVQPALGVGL
Protocol: The radioligand-binding assays for adenosine receptors were performed at Eurofins Discovery Services (Panlabs, Taiwan). Briefly, stock solutions of the compounds were prepared in DMSO and further diluted with the incubation buffer to the desired concentration. Final DMSO concentrations in the assay were 1.0%. For adenosine A1 screening, a 10 μg aliquots of membrane preparations from human recombinant CHO-K1 cells stably expressing A1 receptors (CHO-K1-hA1AR clone3, EPDST, R200510) were incubated with 1 nM [^3H]DPCPX in incubation buffer (20 mM HEPES, pH 7.4, 10 mM MgCl2, 100 mM NaCl 1.40 nM) for 90 min at 25 °C. Nonspecific binding was estimated in the presence of 100 μM R(-)-PIA. Membranes were filtered and washed 3 times and the filters were counted to determine specifically bound [^3H]DPCPX. Chemical compounds were screened at 10 μM. For A2A screening, membrane preparations from human recombinant HEK-293 cells stably expressing A2A receptors (PerkinElmer, RBHA2AM) were incubated with 0.05 μM [^3H]CGS-21680 in incubation buffer (50 mM Tris-HCl, pH 7.4, 10 mM MgCl2, 1 mM EDTA, 2 U/mL Adenosine Deaminase) for 90 min at 25 °C. Nonspecific binding was estimated in the presence of 50.0 μM NECA. Membranes were filtered and washed 3 times and the filters were counted to determine [^3H]CGS-21680 specifically bound. […] Membranes were filtered and washed 3 times and the filters were counted to determine [^3H]MRS1754 specifically bound. […]
IC50 values were determined by a nonlinear, least-squares regression analysis using MathIQ^TM (ID Business Solutions Ltd., Guildford, UK). Where inhibition constants (Ki) were presented, the Ki values were calculated using Cheng and Prusoff equation [18] using the observed IC50 of the compound, the concentration of radioligand employed in the assay, and the historical values for the KD of the ligand (obtained experimentally at Eurofins Panlabs, Inc.). The Hill coefficient (nH), which defines the slope of the competitive binding curve, was calculated using MathIQ^TM.

[2] = biological target: T2, hERG (Homo sapiens, UniProt Q12809); assay: hERG manual patch clamp in hERG-expressing HEK cells; assay type: cell-based; conditions: read-out: hERG inhibition IC50
T2 construct: host or cells: HEK cells stably expressing hERG
T2 sequence (Q12809 whole entry): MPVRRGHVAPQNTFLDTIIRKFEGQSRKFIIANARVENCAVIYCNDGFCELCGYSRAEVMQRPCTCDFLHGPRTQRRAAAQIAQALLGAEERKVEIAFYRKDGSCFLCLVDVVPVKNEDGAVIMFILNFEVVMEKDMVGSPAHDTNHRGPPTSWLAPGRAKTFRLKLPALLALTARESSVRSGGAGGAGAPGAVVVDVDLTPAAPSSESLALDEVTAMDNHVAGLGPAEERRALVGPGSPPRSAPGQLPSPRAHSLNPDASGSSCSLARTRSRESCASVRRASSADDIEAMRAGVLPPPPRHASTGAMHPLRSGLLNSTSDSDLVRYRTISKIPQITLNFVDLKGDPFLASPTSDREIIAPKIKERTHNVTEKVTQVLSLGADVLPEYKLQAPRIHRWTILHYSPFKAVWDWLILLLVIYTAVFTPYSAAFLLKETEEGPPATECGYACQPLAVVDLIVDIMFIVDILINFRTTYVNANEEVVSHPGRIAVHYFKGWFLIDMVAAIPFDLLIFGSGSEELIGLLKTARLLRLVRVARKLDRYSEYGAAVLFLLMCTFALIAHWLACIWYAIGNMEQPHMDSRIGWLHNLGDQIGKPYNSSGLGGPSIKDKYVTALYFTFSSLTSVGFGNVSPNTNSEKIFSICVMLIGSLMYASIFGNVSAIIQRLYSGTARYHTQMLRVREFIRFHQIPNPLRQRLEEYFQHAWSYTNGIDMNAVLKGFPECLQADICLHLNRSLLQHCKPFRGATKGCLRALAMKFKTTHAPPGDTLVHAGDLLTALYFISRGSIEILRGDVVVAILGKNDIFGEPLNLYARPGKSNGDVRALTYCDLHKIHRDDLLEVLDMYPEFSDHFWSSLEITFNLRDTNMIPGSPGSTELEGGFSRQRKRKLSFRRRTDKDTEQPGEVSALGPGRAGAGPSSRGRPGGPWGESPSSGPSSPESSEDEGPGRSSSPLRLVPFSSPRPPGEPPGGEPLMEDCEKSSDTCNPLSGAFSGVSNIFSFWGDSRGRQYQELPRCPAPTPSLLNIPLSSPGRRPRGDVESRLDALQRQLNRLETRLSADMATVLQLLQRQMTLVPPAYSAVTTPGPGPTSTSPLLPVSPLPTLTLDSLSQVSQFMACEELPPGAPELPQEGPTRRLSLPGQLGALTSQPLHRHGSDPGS
Protocol: hERG (human-ether-a-go-go) liability was investigated in an hERG-expressing HEK cell line using the manual patch clamp method to assess the potential cardiotoxicity of 11o.
hERG ion channel-blocking profile of acute exposure to 11o was performed in stably expressing HEK cells at Nova Research Laboratories (New Orleans, LA, USA). Briefly, cloned equivalent of the human IKr, hERG, was used. Cells were obtained from Cytogentrics Bioscience GmbH (Jachim-Jungius-Strafe 9, 18,059 Rostock, Germany). Internal and external recording solutions as well as data acquisition and analysis were as previously described.

[3] = maximum tolerated dose, single oral administration, dog; conditions: both sexes, in vivo, single oral administration, male and female beagle dogs
Protocol: (§1) Rat and dog MTD studies were performed at Frontage Laboratories Inc following testing facility’s SOPs. All procedures described were reviewed and approved by the Institutional Animal Care and Use Committee (IACUC) at Frontage Laboratories Inc.
(§2) For dog MTD study, male and female beagle dogs (Canis familiaris) of 1.3 to 1.4 years of age were from Frontage Laboratories’ test facility stock colony, originally procured from Marshall BioResources (North Rose, NY, USA). The health status of the animals was reviewed by a staff veterinarian. Data collected on animals prior to release to study were maintained as testing facility records. Same dogs were used for each dose event. Animals received a single dose of 11o in 0.5% methyl cellulose via oral gavage starting from 50 mg/kg dose level in 5 mL/kg dose volume. Subsequent doses occurred 3 or 4 days following the previous dose and were increased based on findings from the previous dosing(s). The procedure continued until four dosing events occurred. Animals were fasted overnight prior to each dose administration with food provided approximately 4 h post-dose. Animals were observed once in the morning and once in the afternoon throughout the study for clinical observations. Body weights were measured on the day prior to dose administration. Data were collected and reported electronically using Provantis^TM (Instem LSS Ltd., Staffordshire, UK).

[4] = test system: beagle dogs; assay: as above; conditions: in vivo, po
Protocol: as §1, §2

[5] = average of duplicate experiments

Cc1cc(Cn2ncc3c(-c4cccc(C#N)c4F)nc(N)nc32)ccc1N [11o, 3-(6-Amino-1-(4-amino-3-methylbenzyl)-1H-pyrazolo[3,4-d]pyrimidin-4-yl)-2-fluorobenzonitrile]
nH (Hill coefficient), A2B [1]: 0.98 | IC50 [1, 5]: 1220 nM | Ki [1, 5]: 400 nM | IC50 [2]: 116000 nM | MTD [3]: > 400 mg/kg | body weight change, female dogs [4]: −6.5% | body weight change, male dogs [4]: −5.7%
